Patent US20250064941A1, “SIGLEC LIGANDS, CONJUGATES, AND METHODS OF USE THEREOF” (Osprey Biopharmaceuticals, Inc., priority 2023, published 2025)

Assays:
[1] = biological target: T1, mouse Siglec-2-Fc-Avi (CD22) (Mus musculus, UniProt P35329); assay: SPR binding affinity to mouse CD22; conditions: steady-state analysis
T1 construct: made in house
T1 sequence (P35329 22-708 limits assumed): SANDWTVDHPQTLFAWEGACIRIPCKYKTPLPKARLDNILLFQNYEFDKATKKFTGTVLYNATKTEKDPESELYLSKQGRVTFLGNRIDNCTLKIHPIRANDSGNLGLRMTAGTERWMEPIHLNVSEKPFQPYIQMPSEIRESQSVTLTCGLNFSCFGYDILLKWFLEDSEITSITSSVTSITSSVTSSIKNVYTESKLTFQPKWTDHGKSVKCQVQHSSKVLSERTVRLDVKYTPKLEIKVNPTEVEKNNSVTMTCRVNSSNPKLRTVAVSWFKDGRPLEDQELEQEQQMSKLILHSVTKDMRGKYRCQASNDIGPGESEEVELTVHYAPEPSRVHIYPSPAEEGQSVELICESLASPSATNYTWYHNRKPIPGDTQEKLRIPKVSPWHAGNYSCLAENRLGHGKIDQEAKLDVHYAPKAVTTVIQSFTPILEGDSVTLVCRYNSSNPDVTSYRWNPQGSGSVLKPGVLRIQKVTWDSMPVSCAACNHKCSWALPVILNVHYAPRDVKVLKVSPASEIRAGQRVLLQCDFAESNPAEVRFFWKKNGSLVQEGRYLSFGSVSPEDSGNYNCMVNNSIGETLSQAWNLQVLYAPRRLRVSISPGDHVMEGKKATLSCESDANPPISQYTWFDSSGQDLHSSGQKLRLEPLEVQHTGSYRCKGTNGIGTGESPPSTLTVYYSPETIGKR
Outline: (§1)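 Using a Biacore 8K, compounds were tested against biotinylated CD22 captured after sialidase treatment. The running buffer held 1% DMSO, corrected with a 0.5–2% DMSO series. Affinity was derived by steady-state analysis.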

[2] = biological target: T2, human Siglec-2/CD22 protein (Homo sapiens, UniProt P20273); assay: SPR binding affinity to human CD22; conditions: steady-state analysis
T2 construct: purchased Acro Biosystems SI2-H82E3
T2 sequence (P20273 20-847): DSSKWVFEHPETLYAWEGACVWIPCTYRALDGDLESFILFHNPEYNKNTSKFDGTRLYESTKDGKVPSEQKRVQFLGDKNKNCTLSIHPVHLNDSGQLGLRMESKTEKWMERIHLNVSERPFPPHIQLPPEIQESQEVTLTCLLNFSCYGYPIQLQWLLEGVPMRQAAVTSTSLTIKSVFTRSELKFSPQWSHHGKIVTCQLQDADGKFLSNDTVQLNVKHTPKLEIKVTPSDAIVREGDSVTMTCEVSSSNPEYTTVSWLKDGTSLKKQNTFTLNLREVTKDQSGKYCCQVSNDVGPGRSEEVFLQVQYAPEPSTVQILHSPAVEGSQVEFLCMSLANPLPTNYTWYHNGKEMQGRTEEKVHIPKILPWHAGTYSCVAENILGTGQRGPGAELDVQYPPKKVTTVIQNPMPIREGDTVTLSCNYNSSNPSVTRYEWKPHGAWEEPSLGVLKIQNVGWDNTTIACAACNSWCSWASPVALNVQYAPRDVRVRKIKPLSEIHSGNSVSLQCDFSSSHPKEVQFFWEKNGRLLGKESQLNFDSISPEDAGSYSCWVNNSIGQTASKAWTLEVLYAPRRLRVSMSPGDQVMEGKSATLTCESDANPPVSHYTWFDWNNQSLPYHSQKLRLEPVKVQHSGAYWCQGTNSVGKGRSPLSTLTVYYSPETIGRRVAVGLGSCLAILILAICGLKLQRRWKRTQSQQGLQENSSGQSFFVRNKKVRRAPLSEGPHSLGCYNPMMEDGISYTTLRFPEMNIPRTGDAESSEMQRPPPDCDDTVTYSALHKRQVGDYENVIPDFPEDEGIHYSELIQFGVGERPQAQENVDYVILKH
Outline: as §1

[3] = biological target: cynomolgus Siglec-2/CD22 (Macaca fascicularis, UniProt A0A2K5WCZ6); assay: biochemical; format: binding; conditions: SPR, steady-state analysis; read-out: Affinity cyno CD22
Outline: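 SPR with desialylated (SialoExo, 4 h, 37° C.) cynomolgus CD22 amine-coupled to a CM5 chip. Running buffer 10 mM HEPES, 150 mM NaCl, 0.05% Tween-20, pH 7.5, 1% DMSO, with solvent correction; 120 s dissociation. Affinities from steady-state analysis.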

Chain of cynomolgus Siglec-2/CD22 (A0A2K5WCZ6 entry or part of it): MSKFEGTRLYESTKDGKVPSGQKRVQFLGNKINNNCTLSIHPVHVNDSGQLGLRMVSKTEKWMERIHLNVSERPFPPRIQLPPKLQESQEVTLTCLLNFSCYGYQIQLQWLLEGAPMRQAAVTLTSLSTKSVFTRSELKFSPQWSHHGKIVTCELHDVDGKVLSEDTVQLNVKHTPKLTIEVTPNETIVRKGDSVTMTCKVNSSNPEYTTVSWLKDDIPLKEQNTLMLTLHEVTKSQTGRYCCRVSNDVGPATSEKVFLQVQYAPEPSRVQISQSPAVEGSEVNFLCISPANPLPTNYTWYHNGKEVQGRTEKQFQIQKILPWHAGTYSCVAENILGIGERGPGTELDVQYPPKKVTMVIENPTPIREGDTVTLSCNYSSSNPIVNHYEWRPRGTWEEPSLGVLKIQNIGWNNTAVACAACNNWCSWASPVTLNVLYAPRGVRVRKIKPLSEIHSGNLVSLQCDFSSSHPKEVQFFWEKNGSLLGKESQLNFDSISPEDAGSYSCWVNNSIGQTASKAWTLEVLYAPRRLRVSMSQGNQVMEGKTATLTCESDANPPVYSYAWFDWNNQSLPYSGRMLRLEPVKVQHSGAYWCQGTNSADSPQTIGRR

| Compound | Kd [1] [nM] | Kd [2] [nM] | Kd [3] [nM] |
| --- | --- | --- | --- |
| CC(=O)NCCOCCOCCOCCOCc1cn(CCCCCCCCO[C@]2(C(=O)O)C[C@H](O)[C@@H](NC(=O)CO)[C@H]([C@H](O)[C@H](O)CNC(=O)Cc3ccc(C(F)F)cc3)O2)nn1 [Compound 259, (2R,4S,5R,6R)-6-((1R,2R)-3-(2-(4-(difluoromethyl)phenyl)acetamido)-1,2-dihydroxypropyl)-4-hydroxy-5-(2-hydroxyacetamido)-2-((8-(4-(15-oxo-2,5,8,11-tetraoxa-14-azahexadecyl)-1H-1,2,3-triazol-1-yl)octyl)oxy)tetrahydro-2H-pyran-2-carboxylic acid] | < 1000 | < 1000 | < 1000 |
| CC(=O)NCCOCCOCCOCCOCCNC(=O)CCCCCCO[C@]1(C(=O)O)C[C@H](O)[C@@H](NC(=O)CO)[C@H]([C@H](O)[C@H](O)CNC(=O)Cc2ccc(Cl)cc2)O1 [Compound 264, (2R,4S,5R,6R)-6-((1R,2R)-3-(2-(4-chlorophenyl)acetamido)-1,2-dihydroxypropyl)-2-((2,19-dioxo-6,9,12,15-tetraoxa-3,18-diazapentacosan-25-yl)oxy)-4-hydroxy-5-(2-hydroxyacetamido) tetrahydro-2H-pyran-2-carboxylic acid] | 1000 to 10000 | < 1000 | < 1000 |
| CC(=O)NCCOCCOCCOCCOCCC(=O)NCCCCCCO[C@]1(C(=O)O)C[C@H](O)[C@@H](NC(C)=O)[C@H]([C@H](O)[C@H](O)CNC(=O)c2cccc(Cl)c2)O1 [Compound 271, (2R,4S,5R,6R)-5-acetamido-6-((1R,2R)-3-(3-chlorobenzamido)-1,2-dihydroxypropyl)-2-((2,18-dioxo-6,9,12,15-tetraoxa-3,19-diazapentacosan-25-yl)oxy)-4-hydroxytetrahydro-2H-pyran-2-carboxylic acid] | > 10000 | 1000 to 10000 | 1000 to 10000 |
| CC(=O)NCCOCCOCCOCCOCCn1cc(CCCCCCO[C@]2(C(=O)O)C[C@H](O)[C@@H](NC(C)=O)[C@H]([C@H](O)[C@H](O)CNC(=O)c3cccc(Cl)c3)O2)nn1 [Compound 272, (2R,4S,5R,6R)-5-acetamido-6-((1R,2R)-3-(3-chlorobenzamido)-1,2-dihydroxypropyl)-4-hydroxy-2-((6-(1-(2-oxo-6,9,12,15-tetraoxa-3-azaheptadecan-17-yl)-1H-1,2,3-triazol-4-yl)hexyl)oxy)tetrahydro-2H-pyran-2-carboxylic acid] | > 10000 | 1000 to 10000 | 1000 to 10000 |
| CC(=O)NCCOCCOCCOCCOCCNc1c(NCCCCCCO[C@]2(C(=O)O)C[C@H](O)[C@@H](NC(C)=O)[C@H]([C@H](O)[C@H](O)CNC(=O)c3cccc(Cl)c3)O2)c(=O)c1=O [Compound 273, (2R,4S,5R,6R)-5-acetamido-6-((1R,2R)-3-(3-chlorobenzamido)-1,2-dihydroxypropyl)-2-((6-((3,4-dioxo-2-((2-oxo-6,9,12,15-tetraoxa-3-azaheptadecan-17-yl)amino)cyclobut-1-en-1-yl)amino)hexyl)oxy)-4-hydroxytetrahydro-2H-pyran-2-carboxylic acid] | > 10000 | 1000 to 10000 | 1000 to 10000 |
| CC(=O)NCCOCCOCCOCCOCCC(=O)NCCOCCOCCO[C@]1(C(=O)O)C[C@H](O)[C@@H](NC(C)=O)[C@H]([C@H](O)[C@H](O)CNC(=O)Cc2ccc(Cl)cc2)O1 [Compound 274, (2R,4S,5R,6R)-5-acetamido-6-((1R,2R)-3-(2-(4-chlorophenyl)acetamido)-1,2-dihydroxypropyl)-2-((2,18-dioxo-6,9,12,15,22,25-hexaoxa-3,19-diazaheptacosan-27-yl)oxy)-4-hydroxytetrahydro-2H-pyran-2-carboxylic acid] | > 10000 | > 10000 | > 10000 |
| C#CCOCCOCCNc1c(NCCCCCCO[C@]2(C(=O)O)C[C@H](O)[C@@H](NC(=O)CO)[C@H]([C@H](O)[C@H](O)CNC(=O)C(F)(F)c3ccccc3)O2)c(=O)c1=O [Compound 275, (2R,4S,5R,6R)-6-((1R,2R)-3-(2,2-difluoro-2-phenylacetamido)-1,2-dihydroxypropyl)-2-((6-((3,4-dioxo-2-((2-(2-(prop-2-yn-1-yloxy)ethoxy)ethyl)amino)cyclobut-1-en-1-yl)amino)hexyl)oxy)-4-hydroxy-5-(2-hydroxyacetamido) tetrahydro-2H-pyran-2-carboxylic acid] | 1000 to 10000 | < 1000 | < 1000 |
| C#CCOCCCCCCO[C@]1(C(=O)O)C[C@H](O)[C@@H](NC(N)=O)[C@H]([C@H](O)[C@H](O)CNC(=O)Cc2ccc(Cl)cc2)O1 [Cpd. 86, (2R,4S,5R,6R)-6-((1R,2R)-3-(2-(4-chlorophenyl)acetamido)-1,2-dihydroxypropyl)-4-hydroxy-2-((6-(prop-2-yn-1-yloxy)hexyl)oxy)-5-ureidotetrahydro-2H-pyran-2-carboxylic acid] | < 1000 | < 1000 | 1000 to 10000 |
| C#CCOCCCCCCO[C@]1(C(=O)O)C[C@H](O)[C@@H](NC(=O)CO)[C@H]([C@H](O)[C@H](O)CNC(=O)Cc2ccc(C(C)C)cc2)O1 [Cpd. 159, (2R,4S,5R,6R)-6-((1R,2R)-1,2-dihydroxy-3-(2-(4-isopropylphenyl)acetamido)propyl)-4-hydroxy-5-(2-hydroxyacetamido)-2-((6-(prop-2-yn-1-yloxy)hexyl)oxy)tetrahydro-2H-pyran-2-carboxylic acid] | < 1000 | < 1000 | < 1000 |
| C#CCOCCNC(=O)CCCCCCO[C@]1(C(=O)O)C[C@H](O)[C@@H](NC(=O)CO)[C@H]([C@H](O)[C@H](O)CNC(=O)Cc2ccc(Cl)c(F)c2)O1 [Cpd. 214, (2R,4S,5R,6R)-6-((1R,2R)-3-(2-(4-chloro-3-fluorophenyl)acetamido)-1,2-dihydroxypropyl)-4-hydroxy-5-(2-hydroxyacetamido)-2-((7-oxo-7-((2-(prop-2-yn-1-yloxy)ethyl)amino)heptyl)oxy)tetrahydro-2H-pyran-2-carboxylic acid] | < 1000 | < 1000 | < 1000 |
| CC(=O)NCCOCCOCCOCCOCCC(=O)NCCCCCCO[C@]1(C(=O)O)C[C@H](O)[C@@H](NC(=O)CO)[C@H]([C@H](O)[C@H](O)CNC(=O)Cc2ccc(-c3nnn[nH]3)cc2)O1 [Cpd. 235, (2R,4S,5R,6R)-6-((1R,2R)-3-(2-(4-(1H-tetrazol-5-yl)phenyl)acetamido)-1,2-dihydroxypropyl)-2-((2,18-dioxo-6,9,12,15-tetraoxa-3,19-diazapentacosan-25-yl)oxy)-4-hydroxy-5-(2-hydroxyacetamido)tetrahydro-2H-pyran-2-carboxylic acid] | < 1000 | < 1000 | < 1000 |
| CC(=O)NCCOCCOCCOCCOCCC(=O)NCCCCCO[C@]1(C(=O)O)C[C@H](O)[C@@H](NC(=O)CO)[C@H]([C@H](O)[C@H](O)CNC(=O)Cc2ccc(Cl)cc2)O1 [Cpd. 241, (2R,4S,5R,6R)-6-((1R,2R)-3-(2-(4-chlorophenyl)acetamido)-1,2-dihydroxypropyl)-2-((2,18-dioxo-6,9,12,15-tetraoxa-3,19-diazatetracosan-24-yl)oxy)-4-hydroxy-5-(2-hydroxyacetamido) tetrahydro-2H-pyran-2-carboxylic acid] | 1000 to 10000 | < 1000 | < 1000 |
